In patent publication US20230096203A1, “METHODS FOR DETECTING FOOD ALLERGIES” (THE REGENTS OF THE UNIVERSITY OF MICHIGAN, priority 2020, published 2023):

Test system: CFTR-dependent Cl— transport
Test: Ussing chamber: forskolin-induced short-circuit current of jejunum segments pre-incubated ex vivo with ion channel blockers
Set-up: species or system BALB/c wild-type (WT) mice
Settings: jejunum of OVA-treated mice; DIDS (100 μM) or CFTRInh172 (20 μM) in mucosal reservoir
Experimental: Oral Antigen-Induced Intestinal Anaphylaxis. 4-8-week-old mice were sensitized to ovalbumin (OVA) ([…] of OVA/1 mg of alum in sterile saline by intraperitoneal (i.p.) injection) and received repeated oral gavage (o.g.) challenge with OVA (250 μl of OVA (50 mg) in saline or 250 μl of saline (vehicle)) as previously described (Ahrens et al., American Journal of Pathology 180, 1535-1546, doi:10.101/j.ajpath.2011.12.036 (2012)). Prior to each o.g. challenge, mice were deprived of food for 4-5 hours. Rectal temperatures were measured prior to challenge and then every 15 minutes for 60 minutes. […] Evidence of secretory diarrhea was assessed by determination of short-circuit current (Isc) of small intestine (Si) segments ex vivo in a Ussing chamber system up to 60 minutes following o.g. challenge. […]
Ussing chambers. […] The transepithelial potential difference (PD) was detected with two paired electrodes that contained 4% agar in 3 M KCl. […] To establish equilibrium, PD was continuously monitored under open-circuit conditions for 15 min. […] For ion conductance experiments, changes in Isc were determined for the cumulative addition of forskolin and acetylcholine to the serosal reservoir. After the peak response to the final concentration of each agonist was recorded, the Krebs buffer on each side of the chamber was replaced, and the tissue was allowed to equilibrate for 30 minutes. […]

Row | Compound | Forskolin-induced ΔIsc
1 | O=C(O)c1ccc(/C=C2\SC(=S)N(c3cccc(C(F)(F)F)c3)C2=O)cc1 [CFTR^inh172] | abrogated
2 | O=S(=O)(O)c1cc(N=C=S)ccc1C=Cc1ccc(N=C=S)cc1S(=O)(=O)O [DIDS, 4,4′-Diisothiocyanatostilbene-2,2′-disulfonate] | not
